Measured values published in patent US12030940B2, “Immunotherapeutic tumor treatment method” (Nektar Therapeutics, priority 2017, dated 2024).

Test system: B16F10 mouse melanoma tumors
Experiment: Immune cells in tumor microenvironment by flow cytometry, subcutaneous B16F10 melanoma mice
Type: in vivo

Substance: aldesleukin
- activated natural killer (NK) cells (5 and 7 days after treatment initiation): increased
- ratio of CD8/Treg in the tumor (by day 7, single dose RSLAIL-2 or 5 doses aldesleukin): 18
- total and memory CD8 T cells as percentage of tumor-infiltrating lymphocytes (relative to vehicle): transient
- percentage of Tregs (FoxP3+ subset of CD4) in tumor (relative to vehicle, days 5, 7, 10): modest
